Assay [1] is described as follows: Induction of chondrogenesis in human MSC assessed as maximum activity at 300 nM incubated for 6 days by rhodamine B and Nile red staining based imaging analysis relative to control. The format is functional. To be noted: BMMSC, 144 h, time 6 day.
The target of assay [2] is Dual specificity tyrosine-phosphorylation-regulated kinase 1A (Homo sapiens, UniProt Q13627). Nature of the assay: Inhibition of recombinant DYRK1A (unknown origin) using Ser/Thr 18 peptide as substrate incubated for 1 hr in presence of ATP by FRET assay.
Assay [3] can be described thus: Effect on Wnt signaling pathway in human SW480 cells harbouring TCF/LEF luciferase reporter gene and SP5-Luc reporter gene incubated for 36 to 48 hrs by luminescence assay. It is filed as cell-based. For orientation: A reporter such as luciferase makes a cellular process visible.
Assay [4] in a line: Induction of chondrogenesis in human MSC assessed as incubated for 6 days by rhodamine B and Nile red staining based imaging analysis. The format is functional. To be noted: bmmsc.

Results on 34 molecules are retold here after ChEMBL document CHEMBL4739717, “Methods of treating cartilage disorders through inhibition of clk and dyrk” (2020).

For orientation: Emax means the size of the effect at its maximum, as opposed to the concentration needed. By EC50 is commonly meant the concentration giving half of the maximal effect.

As for `O=C(Nc1cncc(-c2cnc3[nH]nc(-c4cc5c(-c6cccnc6)cccc5[nH]4)c3c2)c1)C1CCC1`, in assay [1], the Emax at 0.3 µM turned out to be 41.3%. The EC50 in assay [2] amounted to 25 nM; in assay [3], 202 nM.

As to `CN1CCN(c2nccc3[nH]c(-c4n[nH]c5ccc(-c6cncc(CN7CCCC7)c6)cc45)cc23)CC1`, the maximal effect (Emax) at 0.3 µM in assay [1] was determined as 31%. Moreover, the 50% effective concentration (EC50) was 48 nM in assay [2] and 9380 nM in assay [3].

With `c1cncc(-c2ccnc3[nH]c(-c4n[nH]c5cnc(-c6cncc(CN7CCCC7)c6)cc45)cc23)c1`, in assay [1], the Emax at 0.3 µM was determined as 16.7%. The figures for the 50% effective concentration (EC50) in assay [2] and in assay [3] were 72 nM and greater than 10000 nM, respectively.

For the molecule `CN1CCN(c2ccnc3[nH]c(-c4n[nH]c5ccc(-c6cncc(NC(=O)CC(C)(C)C)c6)nc45)cc23)CC1`, the Emax at 0.3 µM in assay [1] was determined as 30.3%. For the same molecule, the 50% effective concentration (EC50) is 10 nM in assay [2] and 3870 nM in assay [3].

`c1cncc(-c2ccnc3[nH]c(-c4n[nH]c5cnc(-c6cncnc6)cc45)cc23)c1`: in assay [1], the Emax at 0.3 µM worked out at 49.6%. Also, the concentration for a half-maximal effect (EC50) is 100 nM in assay [2] and greater than 10000 nM in assay [3].

Consider `c1cncc(-c2cncc3[nH]c(-c4n[nH]c5ncc(-c6cncnc6)cc45)cc23)c1`, for which, in assay [1], the Emax at 0.3 µM turned out to be 24.1%. Also, the values for the EC50 in assay [2] and in assay [3] were 7 nM and greater than 10000 nM, respectively.

In the case of `O=C(Nc1cncc(-c2cc3c(-c4cc5c(N6CCCCC6)nccc5[nH]4)n[nH]c3cn2)c1)C1CCC1`, the Emax at 0.3 µM in assay [1] turned out to be 42.4%. Moreover, the EC50 came to 23 nM in assay [2] and 4070 nM in assay [3].

For the molecule `CC(C)Nc1cncc(-c2ccc3[nH]nc(-c4cc5c(-c6cccnc6)ccnc5[nH]4)c3c2)c1`, in assay [1], the maximum response (Emax) at 0.3 µM was determined as 45.5%. In addition, the EC50 in assay [2] is 20 nM; in assay [3] it was greater than 10000 nM.

For the molecule `CC1CCN(Cc2cncc(-c3ccc4[nH]nc(C(=O)Nc5cccnc5)c4c3)c2)CC1`, the Emax at 0.3 µM in assay [1] was found to be 94.4%. Further, the EC50 is 30 nM in assay [4] and 7 nM in assay [3].

On to `CN1CCN(c2nccc3[nH]c(-c4n[nH]c5ccc(-c6cncc(NC(=O)CC7CCNCC7)c6)cc45)cc23)CC1`, for which the Emax at 0.3 µM in assay [1] turned out to be 42.8%. The results for the half-maximal effective concentration (EC50) in assay [2] and in assay [3] were 25 nM and greater than 10000 nM, respectively.

Regarding `CN(C)Cc1cncc(-c2cc3c(-c4cc5c(-c6ccncc6)ccnc5[nH]4)n[nH]c3cn2)c1`, in assay [1], the maximal effect (Emax) at 0.3 µM turned out to be 33.4%. The results for the EC50 in assay [2] and in assay [3] were 71 nM and greater than 10000 nM, respectively.

With `CCCC(=O)Nc1cncc(-c2cnc3[nH]nc(-c4nc5c(-c6ccccc6F)cncc5[nH]4)c3c2)c1`, the maximal effect (Emax) at 0.3 µM in assay [1] was 82.8%. Also, the EC50 in assay [2] is 70 nM; in assay [3] it was 8 nM.

With `CN1CCN(c2ccc(NC(=O)c3n[nH]c4ccc(-c5cncc(CN6CCC(F)(F)C6)c5)cc34)cn2)CC1`, in assay [1], the Emax at 0.3 µM was 80.9%. Moreover, the concentration giving a half-maximal response (EC50) in assay [4] came to 30 nM; in assay [3], 4 nM.

Take `CC(C)C(=O)Nc1cncc(-c2ccc3[nH]nc(-c4cc5c(N6CCN(C)CC6)nccc5[nH]4)c3c2)c1`: the maximum response (Emax) at 0.3 µM in assay [1] worked out at 21%. In addition, the EC50 is 15 nM in assay [2] and 7690 nM in assay [3].

Turning to `FC1(F)CCN(Cc2cncc(-c3ccc4[nH]nc(-c5cc6c(-c7cccnc7)ccnc6[nH]5)c4c3)c2)C1`, the Emax at 0.3 µM in assay [1] was 20.3%. The concentration giving a half-maximal response (EC50) in assay [2] is 10 nM; in assay [3], 523 nM.

For `CC(C)(C)C(=O)Nc1cncc(-c2cc3c(-c4nc5c(-c6ccc(F)s6)nccc5[nH]4)n[nH]c3cn2)c1`, the Emax at 0.3 µM in assay [1] amounted to 40.9%. For the same molecule, the EC50 in assay [2] was 30 nM; in assay [3], 35.3 nM.

With `CCCCC(=O)Nc1cncc(-c2cnc3[nH]nc(-c4cc5cnccc5[nH]4)c3c2)c1`, in assay [1], the maximal effect (Emax) at 0.3 µM was determined as 30.8%. Further, the EC50 in assay [2] was found to be 3 nM; in assay [3], 1470 nM.

On to `O=C(Nc1cncc(-c2ccc3[nH]nc(-c4nc5ccncc5[nH]4)c3c2)c1)C1CC1`, for which the Emax at 0.3 µM in assay [1] was 93.8%. Moreover, the results for the concentration giving a half-maximal response (EC50) in assay [2] and in assay [3] were 42 nM and 8 nM, respectively.

For `CC(C)(C)CC(=O)Nc1cncc(-c2cnc3[nH]nc(-c4cc5cnccc5[nH]4)c3c2)c1`, the Emax at 0.3 µM in assay [1] was found to be 7.07%. Further, the half-maximal effective concentration (EC50) in assay [2] was determined as 2 nM; in assay [3], 605 nM.

With `COc1cncc(-c2ccc3[nH]nc(-c4cc5c(-c6ccoc6)nccc5[nH]4)c3c2)c1`, the Emax at 0.3 µM in assay [1] is 35.5%. In addition, the EC50 was 35 nM in assay [2] and 643 nM in assay [3].

As for `Cc1ccncc1-c1cnc2[nH]nc(-c3cc4c(-c5cccnc5)cncc4[nH]3)c2c1`, the maximal effect (Emax) at 0.3 µM in assay [1] turned out to be 17.4%. Moreover, the EC50 was 17 nM in assay [2] and 2250 nM in assay [3].

For the molecule `FC1(F)CCN(Cc2cncc(-c3ccc4[nH]nc(-c5cc6c(-c7cccnc7)cncc6[nH]5)c4n3)c2)C1`, in assay [1], the maximal response (Emax) at 0.3 µM stood at 23.3%. Further, the 50% effective concentration (EC50) in assay [2] amounted to 30 nM; in assay [3], 3850 nM.

In the case of `CC(C)CC(=O)Nc1cncc(-c2ccc3[nH]nc(-c4cc5c(-c6ccccc6F)nccc5[nH]4)c3n2)c1`, in assay [1], the Emax at 0.3 µM is 36.3%. Further, the half-maximal effective concentration (EC50) in assay [2] came to 23 nM; in assay [3], 605 nM.

In the case of `c1cncc(-c2ccnc3[nH]c(-c4n[nH]c5ncc(-c6cncc(CN7CCCCC7)c6)cc45)cc23)c1`, the maximal effect (Emax) at 0.3 µM in assay [1] came to 43.9%. The concentration for a half-maximal effect (EC50) is 15 nM in assay [2] and greater than 10000 nM in assay [3].

On to `c1ncc(-c2ccc3[nH]nc(-c4cc5c(N6CCCCC6)cncc5[nH]4)c3c2)cc1CN1CCCC1`, for which the maximal effect (Emax) at 0.3 µM in assay [1] amounted to 24.7%. For the same molecule, the concentration for a half-maximal effect (EC50) in assay [2] was 24 nM; in assay [3], 1840 nM.

With `CN(C)Cc1cncc(-c2ccc3[nH]nc(-c4cc5c(-c6ccncc6)cncc5[nH]4)c3c2)c1`, the Emax at 0.3 µM in assay [1] is 17.8%. Besides, the 50% effective concentration (EC50) in assay [2] worked out at 27 nM; in assay [3], 1060 nM.

Turning to `CN1CCN(c2ccnc3[nH]c(-c4n[nH]c5ncc(-c6cn[nH]c6)cc45)cc23)CC1`, the Emax at 0.3 µM in assay [1] was 20.1%. The EC50 in assay [2] was 35 nM; in assay [3], greater than 10000 nM.

With `Nc1cncc(-c2ccc3[nH]nc(-c4cc5c(-c6ccccc6F)ccnc5[nH]4)c3c2)c1`, the maximal effect (Emax) at 0.3 µM in assay [1] was found to be 23.5%. For the same molecule, the EC50 in assay [2] turned out to be 34 nM; in assay [3] it was 131 nM.

`CN1CCN(c2cncc3[nH]c(-c4n[nH]c5ccc(-c6cncc(NC(=O)CC(C)(C)C)c6)cc45)cc23)CC1`: the Emax at 0.3 µM in assay [1] was 30.8%. Also, the EC50 came out at 12 nM in assay [2] and 3480 nM in assay [3].

`CCC(=O)Nc1cncc(-c2cnc3[nH]nc(-c4cc5cnccc5[nH]4)c3c2)c1`: the maximal effect (Emax) at 0.3 µM in assay [1] stood at 16.9%. Moreover, the EC50 was 2 nM in assay [2] and 960 nM in assay [3].

Regarding `CN(C)Cc1cncc(-c2ccc3[nH]nc(-c4cc5c(-c6cccc(F)c6)nccc5[nH]4)c3c2)c1`, in assay [1], the maximal effect (Emax) at 0.3 µM came out at 42%. For the same molecule, the results for the EC50 in assay [2] and in assay [3] were 93 nM and 2940 nM, respectively.

As for `O=C(Nc1cncc(-c2cnc3[nH]nc(-c4nc5c(-c6cccnc6)cncc5[nH]4)c3c2)c1)C1CC1`, the Emax at 0.3 µM in assay [1] was determined as 86.3%. The half-maximal effective concentration (EC50) in assay [2] is 14 nM; in assay [3], 23.3 nM.

Consider `FC1(F)CCN(Cc2cncc(-c3cnc4[nH]nc(-c5cc6c(-c7ccncc7)cncc6[nH]5)c4c3)c2)C1`, for which the maximal response (Emax) at 0.3 µM in assay [1] stood at 36.5%. Besides, the half-maximal effective concentration (EC50) in assay [2] amounted to 13 nM; in assay [3], 1510 nM.

As for `CC(C)C(=O)Nc1cncc(-c2cc3c(-c4cc5c(-c6cccc(F)c6)cncc5[nH]4)n[nH]c3cn2)c1`, the maximum response (Emax) at 0.3 µM in assay [1] was 42.2%. Further, the figures for the EC50 in assay [2] and in assay [3] were 65 nM and 1730 nM, respectively.
